Where a name gives a salt, the structure may show the parent alone.

The subject of the first experiment is Acinetobacter baumannii ATCC 17961. The experiment can be described thus: Antimicrobial susceptibility testing: 90% growth inhibitory concentration (IC90) determination. It is filed as cell-based. The settings on record: ATCC17961, Acinetobacter baumannii ATCC 17961, Iso-Sensitest broth, read-out: ATCC 17961 IC90. An outline of the steps:
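Growth was followed kinetically by OD600 at 20-min intervals for 16 h at 35±2 °C, with ~5×10^5 CFU/ml in Iso-Sensitest broth. Compounds were tested as twofold dilutions (e.g. 50–0.097 μM final). The concentration giving 90% inhibition of log-phase growth was reported.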
Usually IC90 stands for the concentration at which the effect reaches the 90% level. For the compound `Cn1c(-c2cn(C3CCN(C4CC4)C3=O)nc2C(F)(F)F)cnc1C(=O)Nc1ccc(C(=O)N2CCN(C(=O)C3CCNCC3)CC2)c(Cl)c1` (centres unmarked) [Example 26, N-(3-chloro-4-(4-(piperidine-4-carbonyl)piperazine-1-carbonyl)phenyl)-5-(1-(1-cyclopropyl-2-oxopyrrolidin-3-yl)-3-(trifluoromethyl)-1H-pyrazol-4-yl)-1-methyl-1H-imidazole-2-carboxamide formate], the IC90 is 1910 nM.

Regarding `CC(C)Cn1cc(-c2cnc(C(=O)Nc3ccc(C(=O)N4CCN(C(=O)C5CCNCC5)CC4)c(Cl)c3)n2C)c(C(F)(F)F)n1` [Example 27, N-(3-chloro-4-(4-(piperidine-4-carbonyl)piperazine-1-carbonyl)phenyl)-5-(1-isobutyl-3-(trifluoromethyl)-1H-pyrazol-4-yl)-1-methyl-1H-imidazole-2-carboxamide], the IC90 is 531 nM.

With `CNC(=O)Cn1cc(-c2cnc(C(=O)Nc3ccc(C(=O)N4CCN(C(=O)C5CCNCC5)CC4)c(Cl)c3)n2C)c(C(F)(F)F)n1` [Example 28, N-(3-chloro-4-(4-(piperidine-4-carbonyl)piperazine-l-carbonyl)phenyl)-1-methyl-5-(1-(2-(methylamino)-2-oxoethyl)-3-(trifluoromethyl)-1H-pyrazol-4-yl)-1H-imidazole-2-carboxamide formate], the IC90 is 1490 nM.

On to `Cc1cc(NC(=O)c2ncc(-c3c[nH]nc3C(F)(F)F)n2C)ccc1C(=O)N1CCN(C(=O)C2CCNCC2)CC1` [Example 29, 1-Methyl-N-(3-methyl-4-(4-(piperidine-4-carbonyl)piperazine-1-carbonyl)phenyl)-5-(3-(trifluoromethyl)-1H-pyrazol-4-yl)-1H-imidazole-2-carboxamide dihydrochloride], for which the IC90 is 1450 nM.

As to `Cc1cc(NC(=O)c2ncc(-c3cn(CC#N)nc3C(F)(F)F)n2C)ccc1C(=O)N1CCN(C(=O)C2CCNCC2)CC1` [Example 30, 5-(1-(cyanomethyl)-3-(trifluoromethyl)-1H-pyrazol-4-yl)-1-methyl-N-(3-methyl-4-(4-(piperidine-4-carbonyl)piperazine-1-carbonyl)phenyl)-1H-imidazole-2-carboxamide], the 90% effect concentration (IC90) worked out at 867 nM.

`C#CCn1cc(-c2cnc(C(=O)Nc3ccc(C(=O)NC[C@@H]4CCNC4)c(Cl)c3)n2C)c(C(F)(F)F)n1` [Example 31, (R)—N-(3-Chloro-4-((pyrrolidin-3-ylmethyl)carbamoyl)phenyl)-1-methyl-5-(1-(prop-2-yn-1-yl)-3-(trifluoromethyl)-1H-pyrazol-4-yl)-1H-imidazole-2-carboxamide hydrochloride]: the IC90 stood at 962 nM.

`C#CCn1cc(-c2cnc(C(=O)Nc3ccc(C(=O)NC[C@H]4CCNC4)c(Cl)c3)n2C)c(C(F)(F)F)n1` [Example 32, (S)-N-(3-chloro-4-((pyrrolidin-3-ylmethyl)carbamoyl)phenyl)-1-methyl-5-(1-(prop-2-yn-1-yl)-3-(trifluoromethyl)-1H-pyrazol-4-yl)-1H-imidazole-2-carboxamide hydrochloride]: the IC90 came to 896 nM.

On to `C#CCn1cc(-c2cnc(C(=O)Nc3ccc(C(=O)NC[C@@H]4CNC[C@@H]4O)c(Cl)c3)n2C)c(C(F)(F)F)n1` [Example 33, N-(3-chloro-4-((((3S,4R)-4-hydroxypyrrolidin-3-yl)methyl)carbamoyl)phenyl)-1-methyl-5-(1-(prop-2-yn-1-yl)-3-(trifluoromethyl)-1H-pyrazol-4-yl)-1H-imidazole-2-carboxamide hydrochloride], for which the IC90 was 925 nM.

Regarding `C#CCn1cc(-c2cnc(C(=O)Nc3ccc(C(=O)N4CCN(C(=O)OC(C)(C)C)CC4)c(Cl)c3)n2C)c(C(F)(F)F)n1` [Example 34, tert-butyl 4-[2-chloro-4-[[1-methyl-5-[1-prop-2-ynyl-3-(trifluoromethyl)pyrazol-4-yl]imidazole-2-carbonyl]amino]benzoyl]piperazine-1-carboxylate], the IC90 was found to be 1060 nM.

`C#CCn1cc(-c2cnc(C(=O)Nc3ccc(C(=O)N4CCN(C(=O)[C@@H]5C[C@@H](O)CN5)CC4)c(Cl)c3)n2C)c(C(F)(F)F)n1` [Example 36, N-[3-Chloro-4-[4-[(2S,4R)-4-hydroxypyrrolidine-2-carbonyl]piperazine-1-carbonyl]phenyl]-1-methyl-5-[1-prop-2-ynyl-3-(trifluoromethyl)pyrazol-4-yl]imidazole-2-carboxamide hydrochloride]: the IC90 is 286 nM.

Take `C#CCn1cc(-c2cnc(C(=O)Nc3ccc(C(=O)N4CCN(C(=O)[C@H]5CCNC5)CC4)c(Cl)c3)n2C)c(C(F)(F)F)n1` [Example 37, N-[3-chloro-4-[4-[(3S)-pyrrolidine-3-carbonyl]piperazine-1-carbonyl]phenyl]-1-methyl-5-[1-prop-2-ynyl-3-(trifluoromethyl)pyrazol-4-yl]imidazole-2-carboxamide hydrochloride]: the IC90 came to 233 nM.

As to `C#CCn1cc(-c2cnc(C(=O)Nc3ccc(C(=O)N4CCN(C(=O)[C@H]5CCCN5)CC4)c(Cl)c3)n2C)c(C(F)(F)F)n1` [Example 38, N-[3-chloro-4-[4-[(2R)-pyrrolidine-2-carbonyl]piperazine-1-carbonyl]phenyl]-1-methyl-5-[1-prop-2-ynyl-3-(trifluoromethyl)pyrazol-4-yl]imidazole-2-carboxamide hydrochloride], the IC90 came out at 275 nM.

In the case of `C#CCn1cc(-c2cnc(C(=O)Nc3ccc(C(=O)N4CCN(C(=O)C5(O)CCNCC5)CC4)c(Cl)c3)n2C)c(C(F)(F)F)n1` [Example 39, N-[3-chloro-4-[4-(4-hydroxypiperidine-4-carbonyl)piperazine-1-carbonyl]phenyl]-1-methyl-5-[1-prop-2-ynyl-3-(trifluoromethyl)pyrazol-4-yl]imidazole-2-carboxamide hydrochloride], the IC90 stood at 257 nM.

Take `C#CCn1cc(-c2cnc(C(=O)Nc3ccc(C(=O)N4CCN(C(=O)[C@H]5CCNC[C@H]5O)CC4)c(Cl)c3)n2C)c(C(F)(F)F)n1` [Example 40, N-(3-chloro-4-(4-((3S,4S)-3-hydroxypiperidine-4-carbonyl)piperazine-1-carbonyl)phenyl)-1-methyl-5-(1-(prop-2-yn-1-yl)-3-(trifluoromethyl)-1H-pyrazol-4-yl)-1H-imidazole-2-carboxamide hydrochloride]: the IC90 worked out at 241 nM.

`C#CCn1cc(-c2cnc(C(=O)Nc3ccc(C(N)=O)c(Cl)c3)n2C)c(C(F)(F)F)n1` [Example 41, N-(4-Carbamoyl-3-chlorophenyl)-1-methyl-5-(1-(prop-2-yn-1-yl)-3-(trifluoromethyl)-11-pyrazol-4-yl)-1H-imidazole-2-carboxamide]: the IC90 was determined as 801 nM.

As to `C#CCn1cc(-c2cnc(C(=O)Nc3ccc(C(=O)N(C)C)c(Cl)c3)n2C)c(C(F)(F)F)n1` [Example 42, N-(3-chloro-4-(dimethylcarbamoyl)phenyl)-1-methyl-5-(1-(prop-2-yn-1-yl)-3-(trifluoromethyl)-1H-pyrazol-4-yl)-1H-imidazole-2-carboxamide], the IC90 turned out to be 241 nM.

The experiment is the same for the next values; noted with them: Acinetobacter baumannii, ATCC17961, read-out: ATCC 17961 IC90, Acinetobacter baumannii ATCC 17961, Iso-Sensitest broth.
`Cn1c(-c2c[nH]nc2C(F)(F)F)cnc1C(=O)Nc1ccc(C(=O)N2CCNCC2)c(Cl)c1` [Example 35, N-[3-chloro-4-(piperazine-1-carbonyl)phenyl]-1-methyl-5-[3-(trifluoromethyl)-1H-pyrazol-4-yl]imidazole-2-carboxamide hydrochloride]: the IC90 is 3700 nM.

The values are drawn from US11390604B2 (Hoffmann-La Roche Inc., priority 2019, dated 2022).
